Data reported in PubChem BioAssay (NCI).
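These data come from cells grown in 96-well plates and exposed to compound for 48 hours at five concentrations. Abbreviation: GI50, concentration required for 50% inhibition of growth. At the TGI there is no net growth.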

Assays:
Test in all cases: growth of human tumour cells (NCI), 48 h
[1] = test system: 786-0 renal
[2] = test system: BT-549 breast
[3] = test system: DU-145 prostate
[4] = test system: HOP-62 NSCLC
[5] = test system: HOP-92 NSCLC
[6] = test system: HT29 colon
[7] = test system: MDA-MB-231 breast
[8] = test system: MDA-N
[9] = test system: SK-MEL-5 melanoma
[10] = test system: SN12C renal
[11] = test system: DLD-1 colon
[12] = test system: DMS 114 small cell lung
[13] = test system: DMS 273 small cell lung
[14] = test system: HOP-18 NSCLC
[15] = test system: M19-MEL melanoma
[16] = test system: XF 498 CNS
[17] = test system: KM20L2 colon

Structure (SMILES) | TGI [1] [µM] | TGI [2] [µM] | TGI [3] [µM] | TGI [4] [µM] | TGI [5] [µM] | TGI [6] [µM] | TGI [7] [µM] | TGI [8] [µM] | TGI [9] [µM] | TGI [10] [µM] | GI50 [3] [µM] | GI50 [4] [µM] | GI50 [6] [µM] | TGI [11] [µM] | TGI [12] [µM] | TGI [13] [µM] | TGI [14] [µM] | TGI [15] [µM] | TGI [16] [µM] | TGI [17] [µM]
CC(=O)OC1CC(OC2C(O)CC(OC3C(O)CC(OC4CCC5(C)C(CCC6C5CCC5(C)C(C7=CC(=O)OC7)CCC65O)C4)OC3C)OC2C)OC(C)C1OC1OC(CO)C(O)C(O)C1O (stereo unspecified) | 0.0598 | 0.0984 | 0.0489 | < 0.0156 | 0.234 | 0.171 | 2.98 | 0.152 | 0.107 | 0.286 | – | – | – | – | – | – | – | – | – | –
COCCNCc1ccc(-c2cc3nccc(Oc4ccc(NC(=O)C5(C(=O)Nc6ccc(F)cc6)CC5)cc4F)c3s2)nc1 | – | – | 4.51 | 3.43 | – | 2.89 | – | – | – | – | 2.06 | 1.57 | 0.912 | – | – | – | – | – | – | –
CO/C=C1\OC(=O)C=C1OC | – | – | – | – | > 100 | > 100 | – | – | > 100 | > 100 | – | – | – | > 100 | > 100 | > 100 | > 100 | > 100 | > 100 | –
O=S(O)CCCSSSCCCS(=O)O | – | – | – | > 100 | – | > 100 | – | – | – | > 100 | – | – | – | > 100 | > 100 | – | – | > 100 | > 100 | > 100
Cc1ccc(Nc2nc(=O)c3c([nH]c4ccccc43)s2)cc1 | 27.6 | 33.5 | 32.5 | 21.8 | 25.6 | 23.2 | 33.8 | 5.87 | 20.8 | 31.6 | – | – | – | – | – | – | – | – | – | –
CC1(C)N=C(c2ccccc2)SC12S[C@@H]1CCCC[C@H]1S2 | – | > 100 | > 100 | > 100 | > 100 | > 100 | > 100 | 93.5 | 54.5 | > 100 | – | – | – | – | – | – | – | – | – | –
COc1cc(NCCC(=O)O)c2ncccc2c1 | > 100 | > 100 | – | > 100 | > 100 | > 100 | > 100 | > 100 | > 100 | > 100 | – | – | – | – | – | – | – | – | – | –
c1ccc2c(c1)SCCc1cn[nH]c1-2 | – | – | – | > 100 | > 100 | > 100 | – | – | > 100 | > 100 | – | – | – | > 100 | > 100 | > 100 | > 100 | > 100 | > 100 | > 100
NNC(=O)CCc1ccc2ccc3ccccc3c2c1 | > 100 | > 100 | > 100 | > 100 | > 100 | > 100 | > 100 | > 100 | > 100 | > 100 | – | – | – | – | – | – | – | – | – | –
CN(c1ccccc1)c1nc(=[N+]2CCCC2)ss1 | > 100 | – | – | – | – | – | – | – | > 100 | > 100 | – | – | – | – | > 100 | > 100 | > 100 | – | – | > 100
